This is an account of results in paper PMC11204507, “Mechanistic Insights into the Neurotoxicity of 2,5-Dimethoxyphenethylamines (2C) and Corresponding N-(2-methoxybenzyl)phenethylamine (NBOMe) Drugs” (Journal of Xenobiotics, 2024).

Several values for one entry are separate records, joined by “and”; a condition that tells them apart may be missing. Equal entries are not always repeated. Where only a bound is given, the exact number is not on record here.

Data set [1] concerns differentiated SH-SY5Y cells. Put plainly: Intracellular ATP levels, luciferin-luciferase bioluminescence. The class given is cell-based, human. How it is done:
Adenosine triphosphate (ATP) is often considered the primary energy currency of cells, being essential for several cellular activities, such as active transport, metabolism, and cell signaling, among many others. The intracellular ATP levels were measured using a bioluminescence method, consisting of the reaction between luciferin and ATP in the presence of luciferase, where the resulting light intensity is directly proportional to the amount of ATP present in the cells.
Thus, the SH-SY5Y cells were seeded onto 6-well plates (25,000 cells/cm^2) following the previously described seeding and differentiation protocol. On the day of the experiment, the cells were exposed to different concentrations of the tested drugs (EC20 and EC50) for 24 h (37 °C, 5% CO2). At the end of the incubation period, the cells were centrifuged (5 min, 250× g, 4 °C), the supernatants were rejected, and proteins were precipitated with 5% HClO4 for at least 30 min (4 °C). Subsequently, the acidic samples were collected from the plates, centrifuged (5 min, 16,000× g, 4 °C), and the supernatants were stored until further ATP analysis (−80 °C). To assess protein content, the pellets were resuspended in 1 M NaOH, maintained at 4 °C overnight, and stored until further analysis (−20 °C). A Bio-Rad DC™ protein assay kit (Bio-Rad Laboratories, Hercules, CA, USA) was used to analyze protein content, in accordance with the manufacturer’s guidelines.
Before the ATP quantification, the acidic samples were diluted (1:5) with 5% HClO4, and the diluted samples/standards were neutralized with an ice-cold KHCO3 solution (1:1) and centrifuged (16,000× g, 5 min, 4 °C). Then, 75 µL of each sample/standard supernatant was transferred into a white 96-well plate, 75 µL of a luciferin (300 µM)-luciferase (3,000,000 U/mL) solution (10–90%, respectively) was added, and bioluminescence (560 nm, 28 °C) was immediately measured in a multi-well plate reader (PowerWaveX, BioTek Instruments, Winooski, VT, USA).
ATP levels were standardized to protein content. The results are presented as a percentage relative to the control cells (0 µM). A minimum of 6 independent experiments were conducted in duplicate.

The next data set has as its system MAO-A and MAO-B. To be noted: rat model; cited from earlier work.
In another data set the test system is serotonergic B65 cells. On the set-up: method as in doi:10.1007/s11419-020-00527-w. To be noted: 50 μM, 3 h exposure; cited from earlier work.
Data set [2] has as its system differentiated SH-SY5Y cells. The data set is described as follows: Intracellular calcium levels, Fluo-4 AM probe. To be noted: control 100.0%. Type of data set: cell-based, human. The procedure: Calcium is a vital second messenger for almost every cellular process, including cellular signaling, muscle function, neurotransmitter release, membrane function, and apoptosis. Therefore, its levels inside cells are strictly controlled to maintain cellular homeostasis. The intracellular calcium levels were measured using the cell-permeable Fluo-4 AM probe. Inside the cells, Fluo-4 AM is cleaved to its active and fluorescent form—Fluo-4—which has a high affinity for calcium ions (Ca^2⁺). Thus, its fluorescence emission is directly proportional to the concentration of calcium ions in the intracellular environment.
Therefore, the SH-SY5Y cells were seeded onto 96-well plates (25,000 cells/cm^2) following the previously described seeding and differentiation protocol. […] The average value for negative control (EGTA-treated cells) was subtracted from every other condition and then the minimum average value was subtracted from the maximum average value for every other condition. The results are presented as a percentage relative to the control cells (0 µM). A minimum of 5 independent experiments were conducted in triplicate.
For orientation: Calcium assays in cells follow changes in intracellular calcium, usually with a dye or a luminescent sensor.

Where [3] appears, read: drug at its EC50, immediately after exposure.

`CCSc1cc(OC)c(CCN)cc1OC.Cl` [2C-T-2, 2-(4-(ethylthio)-2,5-dimethoxyphenyl)ethan-1-aminium chloride]: the “decrease of intracellular ATP levels relative to control cells” value in data set [1] (drug at its EC20, 24 h) is reported as 18.1%; in data set [1] (drug at its EC50, 24 h) it was 24.8%. For the same compound, in the data set with MAO-A and MAO-B, the “deamination by MAO-A and MAO-B” value is “both isoenzymes can catalyze the deamination”. For the same compound, in the data set with serotonergic B65 cells, the “mitochondrial production of ROS” value was “increase in the mitochondrial production of ROS”.
As for `COc1cc(SC(C)C)c(OC)cc1CCN.Cl` [2C-T-4, 2-(4-(isopropylthio)-2,5-dimethoxyphenyl)ethan-1-aminium chloride], the “decrease of intracellular ATP levels relative to control cells” value is listed as 17.8% in data set [1] (drug at its EC20, 24 h) and 28.7% in data set [1] (drug at its EC50, 24 h). Moreover, in the data set with serotonergic B65 cells, the “mitochondrial production of ROS” value is “no significant alterations”.
For the compound `CCCSc1cc(OC)c(CCN)cc1OC.Cl` [2C-T-7, 2-(2,5-dimethoxy-4-(propylthio)phenyl)ethan-1-aminium chloride], the “Ca2+ intracellular levels, % of control cells” value in data set [2] (drug at its EC20, immediately after exposure) is given as 129.9%; in data set [2] (setting [3]), 146.5%. Moreover, the “decrease of intracellular ATP levels relative to control cells” value stood at 16.9% in data set [1] (drug at its EC20, 24 h) and 24.1% in data set [1] (drug at its EC50, 24 h). For the same compound, in the data set on MAO-A and MAO-B, the “deamination by MAO-A and MAO-B” value is given as “both isoenzymes can catalyze the deamination”. Besides, in the data set on serotonergic B65 cells, the “mitochondrial production of ROS” value is reported as “increase in the mitochondrial production of ROS”.
As for `CCSc1cc(OC)c(CCNCc2ccccc2OC)cc1OC.Cl` [25T2-NBOMe, 2-(4-(ethylthio)-2,5-dimethoxyphenyl)-N-(2-methoxybenzyl)ethan-1-aminium chloride], the “decrease of intracellular ATP levels relative to control cells” value in data set [1] (drug at its EC20, 24 h) is recorded as 16.0%; in data set [1] (drug at its EC50, 24 h) it was 23.5%.
For the compound `COc1cc(SC(C)C)c(OC)cc1CCNCc1ccccc1OC.Cl` [25T4-NBOMe, 2-(4-(isopropylthio)-2,5-dimethoxyphenyl)-N-(2-methoxybenzyl)ethan-1-aminium chloride], the “decrease of intracellular ATP levels relative to control cells” value in data set [1] (drug at its EC20, 24 h) is recorded as 14.6%; in data set [1] (drug at its EC50, 24 h), 21.8%.
For the compound `CCCSc1cc(OC)c(CCNCc2ccccc2OC)cc1OC.Cl` [25T7-NBOMe, 2-(2,5-dimethoxy-4-(propylthio)phenyl)-N-(2-methoxybenzyl)ethan-1-aminium chloride], the “Ca2+ intracellular levels, % of control cells” value in data set [2] (setting [3]) was > 300% and 320.9%. For the same compound, the “decrease of intracellular ATP levels relative to control cells” value in data set [1] (drug at its EC20, 24 h) was determined as 12.0%; in data set [1] (drug at its EC50, 24 h) it was 21.4%.
